Laboratory results taken from ChEMBL document CHEMBL5154916, “Multiparameter Optimization of Naphthyridine Derivatives as Selective α5-GABAA Receptor Negative Allosteric Modulators” (J Med Chem, 2022).
Activity calls are given as the source filed them. No cut-off for these calls is given here.

Legend:
[1] = Metabolic stability in human liver microsomes assessed as intrinsic clearance at 2.5 uM; format: ADME, Microsome; conditions: read-out: CLH
[2] = Half life in Wistar rat total plasma at 1 mg/kg, po by HPLC-MS/MS analysis; format: ADME, organism-based
[3] = Tmax in Wistar rat total plasma at 1 mg/kg, po by HPLC-MS/MS analysis; format: ADME, organism-based
[4] = Metabolic stability in Wistar rat hepatocyte assessed as intrinsic clearance measured per 10^6 cells; format: ADME, cell-based; conditions: hepatocytes, read-out: CLH
[5] = Plasma protein binding in dog; format: ADME, cell-free, Canis lupus familiaris; conditions: read-out: PPB (converted)
[6] = Bioavailability in female dog at 10 mg/kg, po or 3 mg/kg, iv by HPLC-MS/MS analysis; format: ADME, organism-based, Canis lupus familiaris; conditions: in vivo
[7] = Toxicity in po dosed Wistar rat assessed NOAEL by 4 days toxicology study; format: organism-based; conditions: in vivo, time 4 day
Rattus norvegicus = assay: Pro-cognitive activity in neonatal PCP-impaired social recognition Wistar rat model assessed as time spent in recognition of new juveniles at 3 mg/kg, po administered 30 min before acquisition by social recognition test; format: functional, organism-based

## Cc1onc(-c2ccc(F)cc2)c1COc1ccc2c(n1)CCN(C(=O)CS(C)(=O)=O)C2
[1]
  microsomal CLint at 2.5 µM: 6 µL/min/mg
[2]
  half-life: 70.2 min
[3]
  Tmax: 30 min
[4]
  hepatocyte CLint: 19 µL/min/1e6 cells
[5]
  fraction unbound: 0.05
[6]
  bioavailability: 6.7%
[7]
  NOAEL at 96 h: ≥ 500 mg/kg
Rattus norvegicus
  Activity: Active
